Data on 7 molecules can be found in paper PMC9732672, “Pyrazolyl-s-triazine with indole motif as a novel of epidermal growth factor receptor/cyclin-dependent kinase 2 dual inhibitors” (Frontiers in Chemistry, 2022).

Usually IC50 stands for the concentration that inhibits the measured activity by half. The term inhibition denotes how much of the control response was suppressed. Low readings indicate a response near the control, high ones a response far below the control. As usually defined, the Ki is the equilibrium dissociation constant of an inhibitor or competing ligand from its target.

Structures are written as SMILES. Bounds are passed on as bounds.

The test system of assay [1] is MCF-7 (breast cancer) cells. The experiment in a line: MTT cytotoxicity assay, MCF-7. The assay is classed as cell-based, human. The settings on record: Homo sapiens, MCF7, average ±SD of four independent experiments, read-out: IC50 ± STDEV, MCF-7. On the procedure: (§1) The parental MCF7 (breast cancer cell line), A549 (non-small cell lung cancer cell line), and human dermal fibroblast (HDF) (human dermal cell line) cells were obtained from the American Type Culture Collection (ATCC, Manassas, VA, United States). MCF7 and A549 cells were cultured in RPMI 1640 medium (EuroClone, Italy) supplemented with 10% (v/v) heat-inactivated fetal bovine serum (FBS) (EuroClone, Italy), 1% penicillin-streptomycin (EuroClone, Italy), and 2 mM L-glutamine.
(§2) The cytotoxic activity of the tested compounds were tested using MTT assay. […] Then, the cell viability was recored and IC50 values were calcualted. ([Mosmann, 1983]; [Nafie et al., 2020c]).
(Tetrazolium assays rely on reduction of a dye to a coloured formazan, in cell work by metabolically active cells.)

Assay [2] deals with A549 cells. The experiment in a line: Flow cytometry, Annexin V/PI staining. The assay is classed as cell-based, human. The settings on record: A549, IC50 value, 48 h; for cells undergoing late apoptosis: control 0.16%; for cells undergoing early apoptosis: control 0.42%; for total apoptosis / total apoptotic cell death, fold vs control: control 0.61%; for necrosis-mediated cell death / necrosis-mediated cell death, fold increase: control 0.97%. As for the experimental part: A549 cells were seeded into 6-well culture plates (3-5× 10^5 cells/well) and incubated overnight. […] Next, media supernatants and cells were collected and rinsed with ice-cold PBS. The cells were then suspended in the flow cytometry solutions and cells were stained with Annexin V/PI, and data was acquired using a Cytoflex FACS machine. Data were analyzed using cytExpert software. ([Hisham et al., 2019]; [Khodair et al., 2019]; [Nafie et al., 2020b]).
(In general: A flow cytometer gives signals particle by particle.)

Assay [3] deals with HDFs (non-cancerous human dermal fibroblasts). Nature of the assay: MTT cytotoxicity assay, HDFs. The following applies: Homo sapiens, Fibroblast, non-cancerous cells, average ±SD of four independent experiments, read-out: IC50 ± STDEV, HDFs. The assay is classed as cell-based. As for the experimental part:
as §1, §2

The target of assay [4] is CDK-2 (Homo sapiens, UniProt P24941). The experiment in a line: CDK-2 enzyme inhibition. The assay is classed as biochemical. The following applies: for IC50: Mean ± SD of three independent replicates.
The target in assay [5] is T1, EGFR (Homo sapiens, UniProt P00533).
T1 construct: purchased Promega V9261
The experiment in a line: EGFR-TK kinase assay (ADP-Glo). The assay is classed as biochemical. The following applies: for IC50: Mean ± SD of three independent replicates, read-out: EGFR inhibition IC50. On the procedure:
EGFR-TK assay kit (ADP-Glo™ kinase assay, Cat No. V9261, Promega, United States) kinase assay was performed to evaluate the capacity of 3h, 3i, and 3j to inhibit EGFR.
Background: In ADP-Glo the light output rises with the ADP produced.

The subject of assay [6] is A549 (non-small cell lung cancer) cells. Nature of the assay: MTT cytotoxicity assay, A549. The assay is classed as cell-based, human. The following applies: Homo sapiens, A549, average ±SD of four independent experiments, read-out: IC50 ± STDEV, A549. On the procedure: as §1, §2
The test system of assay [7] is apoptosis-related genes in A549 cells. The experiment in a line: Gene expression analysis by RT-PCR. The assay is classed as cell-based, human. The settings on record: A549 treated at IC50; normalized to β-actin; 2^-ΔΔCT.
The test system of assay [8] is CDK4. More on the design: method as in Kumar et al., 2019. The settings on record: Figure 1; ref Kumar et al., 2019; read-out: CDK-inhibitor IC50, CDK4; cited from earlier work.
Assay [9] relates to CDK1. More on the design: method as in Kumar et al., 2019. The settings on record: Figure 1; ref Kumar et al., 2019; read-out: CDK-inhibitor IC50, CDK1; cited from earlier work.
The test system of assay [10] is CDK6. Also noted: method as in Kumar et al., 2019. The settings on record: Figure 1; ref Kumar et al., 2019; read-out: CDK-inhibitor IC50, CDK6; cited from earlier work.
In assay [11] the test system is CDK2-A. More on the design: method as in Kumar et al., 2019. The following applies: Figure 1; ref Kumar et al., 2019; read-out: CDK-inhibitor IC50, CDK2-A; cited from earlier work.
Assay [12] has as its target 5-HT7R. More on the design: method as in Kułaga et al., 2020. The settings on record: ref Kułaga et al., 2020; read-out: Ki, 5-HT7 receptors; cited from earlier work.

T1 sequence (P00533 25-1210): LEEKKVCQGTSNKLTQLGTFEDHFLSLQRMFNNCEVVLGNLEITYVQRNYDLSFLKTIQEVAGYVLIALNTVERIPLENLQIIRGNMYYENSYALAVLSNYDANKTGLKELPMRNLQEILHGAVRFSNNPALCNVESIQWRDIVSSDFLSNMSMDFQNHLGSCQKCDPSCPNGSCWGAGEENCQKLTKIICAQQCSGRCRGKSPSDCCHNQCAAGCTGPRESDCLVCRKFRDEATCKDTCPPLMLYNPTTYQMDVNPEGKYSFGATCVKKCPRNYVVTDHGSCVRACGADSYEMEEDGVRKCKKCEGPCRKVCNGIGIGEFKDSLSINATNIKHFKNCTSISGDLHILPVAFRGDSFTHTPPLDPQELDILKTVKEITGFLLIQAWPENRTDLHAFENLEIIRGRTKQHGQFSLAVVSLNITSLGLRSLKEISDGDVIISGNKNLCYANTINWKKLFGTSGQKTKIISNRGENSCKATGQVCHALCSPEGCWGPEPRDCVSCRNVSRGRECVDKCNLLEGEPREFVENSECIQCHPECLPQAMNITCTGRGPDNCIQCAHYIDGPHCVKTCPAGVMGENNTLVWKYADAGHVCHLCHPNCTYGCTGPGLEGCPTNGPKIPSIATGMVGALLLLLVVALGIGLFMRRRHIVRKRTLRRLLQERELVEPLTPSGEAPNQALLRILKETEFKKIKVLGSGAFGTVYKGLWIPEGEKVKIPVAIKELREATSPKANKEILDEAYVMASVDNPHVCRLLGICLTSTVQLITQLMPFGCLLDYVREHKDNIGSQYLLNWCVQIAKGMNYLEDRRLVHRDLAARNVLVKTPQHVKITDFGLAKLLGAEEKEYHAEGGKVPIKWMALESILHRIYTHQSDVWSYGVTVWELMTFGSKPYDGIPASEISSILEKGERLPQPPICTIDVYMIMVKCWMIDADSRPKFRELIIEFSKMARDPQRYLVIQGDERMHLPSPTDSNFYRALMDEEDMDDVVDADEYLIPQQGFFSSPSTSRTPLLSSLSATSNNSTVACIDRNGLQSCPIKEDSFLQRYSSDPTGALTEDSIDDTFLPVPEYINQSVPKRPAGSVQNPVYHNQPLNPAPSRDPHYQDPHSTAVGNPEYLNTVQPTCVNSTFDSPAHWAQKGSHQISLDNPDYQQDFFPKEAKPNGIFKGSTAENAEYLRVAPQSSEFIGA

As to `Nc1cc(-c2c[nH]c3ccccc23)nn1-c1nc(Nc2ccccc2)nc(N2CCOCC2)n1` [Compound 3h, 4-(5-Amino-3-(1H-indol-3-yl)-1H-pyrazol-1-yl)-6-morpholino-N-phenyl-1,3,5-triazin-2-amine], the IC50 in assay [1] turned out to be 2660 ± 260 nM. For the same molecule, in assay [2], the “cells undergoing late apoptosis” value came out at 12%; the “cells undergoing early apoptosis” value was 19.4%; the total apoptosis is 31.4%; the “total apoptotic cell death, fold vs control” value came out at 51.4 fold. In assay [2], the necrosis-mediated cell death came to 4.98% and the “necrosis-mediated cell death, fold increase” value was determined as 5.1 fold. The IC50 in [3] was determined as 14000 ± 2670 nM. In addition, it took 112 ± 3.01 nM to reach half-maximal inhibition in [4] (IC50). The half-maximal inhibitory concentration (IC50) in assay [5] was 64.2 ± 3.12 nM. In [6], the IC50 was found to be 2650 ± 220 nM.
Consider `Nc1cc(-c2c[nH]c3ccccc23)nn1-c1nc(Nc2ccc(Cl)cc2)nc(N2CCOCC2)n1` [Compound 3i, 4-(5-Amino-3-(1H-indol-3-yl)-1H-pyrazol-1-yl)-N-(4-chlorophenyl)-6-morpholino-1,3,5-triazin-2-amine], for which the IC50 in assay [1] came to 3280 ± 160 nM. Further, in assay [2], the “cells undergoing late apoptosis” value was determined as 19.5%; the “cells undergoing early apoptosis” value came out at 24.2%; the total apoptosis was 43.7%; the “total apoptotic cell death, fold vs control” value is on record as 71.6 fold. In assay [2], the necrosis-mediated cell death is 4.08% and the “necrosis-mediated cell death, fold increase” value was 4.2 fold. The IC50 in assay [3] was found to be 3780 ± 550 nM. In [7], the “Bax gene expression, fold of change” value was 3.56 fold; the “Bcl-2 gene expression, fold change” value was determined as 0.23 fold; the “P53 gene expression, fold of change” value worked out at 4.55 fold; the “caspase 3 gene expression, fold of change” value came out at 6.96 fold. Further, in assay [7], the “caspase 8 gene expression, fold of change” value is 1.49 fold and the “caspase 9 gene expression, fold of change” value is recorded as 7 fold. Also, it took 108 ± 3.12 nM to reach half-maximal inhibition in [4] (IC50). Moreover, in [4] (at 10 µM), the inhibition at 10 µM was 91.4%. In addition, the IC50 in [5] came to 34.1 ± 1.58 nM. Besides, in assay [5] (at 10 µM), the inhibition at 10 µM came out at 93.6%. Besides, the IC50 in [6] came out at 2400 ± 640 nM.
Consider `OCCCNc1cc(-c2ncnc(Nc3cccc(Cl)c3)n2)ccn1` [XVI], for which the IC50 in assay [8] was 308 nM; in [9], 21 nM; in assay [10], 356 nM; in [11], 7 nM.
In the case of `COc1nc(NCCc2c[nH]c3ccccc23)nc(Nc2ccc3[nH]ncc3c2)n1` [XV], in [12], the Ki was below 60 nM.
With `OCCCNc1cncc(-c2ncnc(Nc3cccc(Cl)c3)n2)c1` [XVII], the IC50 in assay [9] is 60 nM.
With `Nc1nc(NCCOc2ccccc2)nc(NCCc2c[nH]c3ccccc23)n1` [XIV], the inhibition constant Ki in assay [12] is below 60 nM.
In the case of `Nc1cc(-c2c[nH]c3ccccc23)nn1-c1nc(Nc2ccc(Br)cc2)nc(N2CCOCC2)n1` [Compound 3j, 4-(5-Amino-3-(1H-indol-3-yl)-1H-pyrazol-1-yl)-N-(4-bromophenyl)-6-morpholino-1,3,5-triazin-2-amine], the IC50 in assay [1] was determined as 3300 ± 320 nM. Moreover, in [2], the “cells undergoing late apoptosis” value amounted to 8.5%; the “cells undergoing early apoptosis” value is reported as 22.6%; the total apoptosis is recorded as 31.1%; the “total apoptotic cell death, fold vs control” value worked out at 50.9 fold. In assay [2], the necrosis-mediated cell death came out at 5.42% and the “necrosis-mediated cell death, fold increase” value was found to be 5.58 fold. In addition, in assay [3], the IC50 was found to be 3960 ± 730 nM. In [4], this molecule returned an IC50 of 136 ± 3.14 nM. Besides, the IC50 in assay [5] was 68.4 ± 2.98 nM. Moreover, in assay [6], the IC50 was 2320 ± 210 nM.
